From ChEMBL document CHEMBL1201862, “PubChem BioAssay data set” (2004) come the findings set out here.

The structures appear in SMILES notation.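 Compound exposure: 48 hours, 5 concentrations, 96-well plates. GI50 is the concentration that inhibits growth by half.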 The source made the active and inactive calls. Cut-off read from the data, not from the text of the source: active = GI50 up to about 1.1 µM and inactive = higher.

Some test systems named below: SNB-78; DMS-114; XF498; RXF 631; KM-20L2; LXFL 529; HOP-18; DMS-273; BT-549.
Common to all, as to assay: NCI tumour cell line growth inhibition, 48 h

Turning to `O=C(N[C@H]1CC2(C=C(I)C(=O)C(I)=C2)OC1=O)OCc1ccccc1`, the GI50 in the assay on SNB-78 is 17.4 µM (inactive); with DMS-114, 19.8 µM (inactive); in the assay on XF498, 13.8 µM (inactive); in the assay with RXF 631, 17.1 µM (inactive); with KM-20L2, 18.6 µM (inactive); in the assay with LXFL 529, 16.6 µM (inactive).
As for `Cn1nc(-c2ccccc2)c(C(=O)/C=C/c2ccc(F)cc2)c(N2CCOCC2)c1=O`, the GI50 is 15.9 µM (inactive) with DMS-114; 19.8 µM (inactive) in the assay with XF498; 27.7 µM (inactive) in the assay with RXF 631; 15.1 µM (inactive) with KM-20L2; 17.3 µM (inactive) in the assay on HOP-18; 16 µM (inactive) with LXFL 529. Moreover, the GI50 with DMS-273 was 19.1 µM (inactive).
As to `COc1ccc2cccc(C(=O)c3ccc(C)c4c3CCC4)c2c1`, the GI50 in the assay on DMS-114 was 32.4 µM (inactive); with RXF 631, 23 µM (inactive); in the assay on KM-20L2, 35.9 µM (inactive); in the assay with HOP-18 it was 33.3 µM (inactive); in the assay on LXFL 529, 29.6 µM (inactive); with DMS-273, 29.1 µM (inactive).
For `C1=C2/CC[C@H](Sc3ccccc3)[C@H]2C2(CCCCC/1)OCCO2`, the GI50 in the assay on SNB-78 is 94 µM (inactive); with KM-20L2, 21.1 µM (inactive); with HOP-18, 72.8 µM (inactive); in the assay on LXFL 529, 46.7 µM (inactive); with DMS-273, 39.4 µM (inactive).
On to `CCN(CC)CCCNc1nccc2c(C)c3[nH]c4ccncc4c(=O)c3cc12`, for which the GI50 with SNB-78 was 2.2 µM (inactive); in the assay on DMS-114 it was 0.494 µM (active); with XF498 it was 2.46 µM (inactive); in the assay on RXF 631, 1.92 µM (inactive); in the assay with KM-20L2, 4.11 µM (inactive); in the assay with HOP-18, 2.52 µM (inactive). The figures for the GI50 in the assay on LXFL 529 and in the assay on DMS-273 were 1.48 µM (inactive) and 2.19 µM (inactive), respectively.
On to `Cc1cccc(NC(=O)CC(=O)N2N=C(N(CCC#N)c3ccc(Cl)cc3)CC2c2ccccc2)c1` (stereo not given), for which the GI50 with SNB-78, in the assay on DMS-114, with XF498, in the assay with RXF 631, in the assay with HOP-18 and in the assay with LXFL 529 was > 100 µM (inactive) in each case. Besides, the GI50 in the assay with DMS-273 is > 100 µM (inactive).
For the compound `O=C1C=C(Nc2ccccc2C(=O)CC(=O)C(=O)Nc2cccc(C(F)(F)F)c2)c2ccccc2C1=O`, the GI50 is 8.93 µM (inactive) with BT-549; > 36.7 µM (inactive) with SNB-78; 13 µM (inactive) with DMS-114; 26.2 µM (inactive) with XF498; > 100 µM (inactive) in the assay on RXF 631; > 100 µM (inactive) with KM-20L2. The GI50 in the assay on HOP-18 was 13.2 µM (inactive); in the assay with LXFL 529 it was 18.3 µM (inactive); with DMS-273, 21.5 µM (inactive).
Consider `COc1ccc(CN2C(=O)C(Cc3cc(OC)c(OC)c(C)c3OC)NC(=O)/C2=C/c2cc(OC)c(OC)c(C)c2OC)cc1` (stereo not given), for which the GI50 with DMS-114 was 33.2 µM (inactive); with RXF 631 it was 43 µM (inactive); with KM-20L2, 25 µM (inactive); in the assay with HOP-18 it was 26.1 µM (inactive); with LXFL 529, 31.8 µM (inactive); in the assay with DMS-273 it was > 10 µM (inactive).
Consider `O=C1c2cccc3cccc(c23)C(=O)N1CCN(CCO)CCO`, for which the GI50 in the assay on SNB-78 was 42.1 µM (inactive); in the assay with XF498 it was 28.5 µM (inactive); in the assay on RXF 631 it was 35.8 µM (inactive); in the assay with KM-20L2, 21.1 µM (inactive); in the assay with HOP-18 it was 75 µM (inactive); with LXFL 529, 32.3 µM (inactive). Also, the GI50 in the assay with DMS-273 is 22.8 µM (inactive).
As to `CNC(=O)OCc1nccc2c(C)c3[nH]c4ccc(OC)cc4c3cc12`, the GI50 is 16.6 µM (inactive) in the assay with SNB-78; 2.92 µM (inactive) in the assay on DMS-114; 14.1 µM (inactive) with XF498; 3.11 µM (inactive) in the assay with KM-20L2; 2.47 µM (inactive) in the assay on HOP-18; 5.74 µM (inactive) in the assay on LXFL 529. Besides, the GI50 in the assay on DMS-273 was 7.23 µM (inactive).
As to `Brc1cc2c(cc1C1SCCS1)OCO2`, the GI50 in the assay with SNB-78 was > 100 µM (inactive); in the assay with DMS-114, 37.3 µM (inactive); in the assay with RXF 631 it was > 100 µM (inactive); in the assay with KM-20L2, > 100 µM (inactive); with HOP-18 it was > 100 µM (inactive); with LXFL 529 it was > 100 µM (inactive). The GI50 in the assay on DMS-273 is > 100 µM (inactive).
Take `O=c1c2c([nH]c3cc4c(cc13)OCO4)-c1ccccc1C2`: the GI50 with SNB-78 was 30.5 µM (inactive); with XF498, 24.2 µM (inactive); in the assay with KM-20L2, 19 µM (inactive); with HOP-18, 24.2 µM (inactive); with LXFL 529 it was 22.7 µM (inactive); with DMS-273 it was 19.2 µM (inactive).
Regarding `CCc1cccc(=O)c([O-])c1.CCc1cccc(=O)c([O-])c1.[Bi+3].[Cl-]`, the GI50 was 7.19 µM (inactive) in the assay on SNB-78; 3.01 µM (inactive) in the assay on DMS-114; 2.38 µM (inactive) in the assay on XF498; 4.13 µM (inactive) in the assay on RXF 631; 10.5 µM (inactive) in the assay on KM-20L2; 16.2 µM (inactive) with HOP-18. Besides, the GI50 in the assay with LXFL 529 is 1.71 µM (inactive); in the assay on DMS-273, 7.53 µM (inactive).
`Cc1c(C(=O)O)oc2ccc([N+](=O)[O-])cc12`: the GI50 in the assay with SNB-78, in the assay on DMS-114, in the assay on XF498, with RXF 631, in the assay on KM-20L2 and with HOP-18 was > 100 µM (inactive) throughout. Further, the GI50 with LXFL 529 and with DMS-273 was > 100 µM (inactive) in each case.
Turning to `NC1=NC(=O)/C(=C/c2ccccc2[N+](=O)[O-])C(N)=N1`, the GI50 with SNB-78, in the assay on DMS-114, in the assay with XF498, in the assay with RXF 631, in the assay with KM-20L2 and in the assay with HOP-18 was > 100 µM (inactive) throughout. Besides, the GI50 with LXFL 529 and in the assay on DMS-273 was > 100 µM (inactive) in each case.
Take `CCOC(=O)C(=O)Nc1ccccc1C(C)C`: the GI50 in the assay with DMS-114, with XF498, in the assay with RXF 631, in the assay on KM-20L2, in the assay on HOP-18 and with LXFL 529 was > 100 µM (inactive) in each case. In addition, the GI50 in the assay on DMS-273 is > 100 µM (inactive).
For `CC1(C)C(=O)N(CCCCCCN2C(=O)C(C)(C)c3ccccc32)c2ccccc21`, the GI50 in the assay with SNB-78 was 96.4 µM (inactive); in the assay on DMS-114, 21.6 µM (inactive); in the assay on XF498, 16.5 µM (inactive); in the assay on KM-20L2 it was 37.2 µM (inactive); in the assay on HOP-18, 81.1 µM (inactive); with LXFL 529 it was 39.1 µM (inactive). Moreover, the GI50 with DMS-273 is 40.9 µM (inactive).
With `CCOc1ccccc1NC(=O)CC1SC(Nc2ccc([N+](=O)[O-])cc2)=NC1=O` (stereo not given), the GI50 in the assay on SNB-78 is 28.8 µM (inactive); with DMS-114, 13.1 µM (inactive); in the assay on XF498, 15.8 µM (inactive); in the assay on KM-20L2, 19.4 µM (inactive); in the assay on HOP-18, 17.6 µM (inactive); in the assay on LXFL 529 it was 17.7 µM (inactive).
In the case of `Cc1ccccc1NC(=O)/C(=N/NC(=O)CC#N)C1C(=O)N(c2ccccc2)N=C1N` (stereo not given), the GI50 in the assay on SNB-78, with DMS-114, in the assay on XF498, in the assay on RXF 631, with KM-20L2 and in the assay with HOP-18 was > 100 µM (inactive) each time. The GI50 in the assay with LXFL 529 and in the assay with DMS-273 was > 100 µM (inactive) throughout.
As to `COC(=O)C1=CC2C=CC(C1C(=O)OC)C1C(C(=O)OC)=C(C(=O)OC)C(C(=O)OC)=C(C(=O)OC)C21OC` (stereo not given), the GI50 with SNB-78, in the assay on DMS-114, in the assay on RXF 631, with KM-20L2, with HOP-18 and in the assay on LXFL 529 was > 100 µM (inactive) throughout. For the same compound, in the assay on DMS-273, the GI50 is > 100 µM (inactive).
As for `O=S1(=O)N2CN3CN(C2)CN1C3`, the GI50 is 28.1 µM (inactive) in the assay on SNB-78; 23.7 µM (inactive) with DMS-114; > 100 µM (inactive) with XF498; > 91.8 µM (inactive) in the assay with KM-20L2; > 50.1 µM (inactive) in the assay with HOP-18; 18.2 µM (inactive) with LXFL 529. For the same compound, the GI50 in the assay with DMS-273 is 27 µM (inactive).
Consider `CCOC(=O)C1=C(C)NC(=S)NC1c1ccccc1` (stereo not given), for which the GI50 was > 100 µM (inactive) with SNB-78; > 39.9 µM (inactive) in the assay on DMS-114; > 39.4 µM (inactive) in the assay with XF498; > 100 µM (inactive) with RXF 631; > 41.4 µM (inactive) in the assay on KM-20L2; > 35.6 µM (inactive) in the assay with HOP-18. The GI50 with LXFL 529 is 76.4 µM (inactive); in the assay on DMS-273, > 100 µM (inactive).
